The values that follow come from ChEMBL document CHEMBL1268934, “Design, synthesis, and subtype selectivity of 3,6-disubstituted β-carbolines at Bz/GABA(A)ergic receptors. SAR and studies directed toward agents for treatment of alcohol abuse” (Bioorg Med Chem, 2010).

In general, Ki refers to a measure of affinity in units of concentration, obtained from inhibition or displacement.

Common to all, as to format: cell-based, HEK293
Test [1] deals with T1, GABA-A receptor; alpha-3/beta-3/gamma-2 (Homo sapiens, UniProt P18507+P28472+P34903).
T1 sequence (P18507 whole entry): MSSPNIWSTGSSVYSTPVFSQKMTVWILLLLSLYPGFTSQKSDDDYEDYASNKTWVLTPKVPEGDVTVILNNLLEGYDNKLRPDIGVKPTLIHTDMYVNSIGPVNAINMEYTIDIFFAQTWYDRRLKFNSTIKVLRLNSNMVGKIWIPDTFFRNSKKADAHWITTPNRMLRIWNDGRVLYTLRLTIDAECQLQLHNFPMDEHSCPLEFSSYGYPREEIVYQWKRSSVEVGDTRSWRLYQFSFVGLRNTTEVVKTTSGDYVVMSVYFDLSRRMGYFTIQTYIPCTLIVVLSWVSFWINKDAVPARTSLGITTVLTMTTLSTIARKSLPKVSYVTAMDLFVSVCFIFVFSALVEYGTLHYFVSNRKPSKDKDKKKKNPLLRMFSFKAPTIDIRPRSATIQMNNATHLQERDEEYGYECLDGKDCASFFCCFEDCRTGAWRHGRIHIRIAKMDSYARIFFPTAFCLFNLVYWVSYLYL
T1 sequence (P28472 whole entry): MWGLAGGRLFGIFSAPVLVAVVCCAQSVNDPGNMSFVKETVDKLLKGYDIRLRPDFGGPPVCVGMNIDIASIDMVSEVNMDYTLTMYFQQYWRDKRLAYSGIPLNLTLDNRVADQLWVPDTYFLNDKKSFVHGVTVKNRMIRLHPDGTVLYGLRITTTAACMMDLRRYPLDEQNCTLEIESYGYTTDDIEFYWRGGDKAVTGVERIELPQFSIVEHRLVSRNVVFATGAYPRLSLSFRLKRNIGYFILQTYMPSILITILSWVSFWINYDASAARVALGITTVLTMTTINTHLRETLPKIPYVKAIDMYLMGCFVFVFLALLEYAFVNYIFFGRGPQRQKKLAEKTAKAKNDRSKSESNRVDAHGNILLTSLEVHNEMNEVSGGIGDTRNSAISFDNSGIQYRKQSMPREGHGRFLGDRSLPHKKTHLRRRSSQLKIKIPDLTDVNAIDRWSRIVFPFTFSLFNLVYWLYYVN
T1 sequence (P34903 whole entry): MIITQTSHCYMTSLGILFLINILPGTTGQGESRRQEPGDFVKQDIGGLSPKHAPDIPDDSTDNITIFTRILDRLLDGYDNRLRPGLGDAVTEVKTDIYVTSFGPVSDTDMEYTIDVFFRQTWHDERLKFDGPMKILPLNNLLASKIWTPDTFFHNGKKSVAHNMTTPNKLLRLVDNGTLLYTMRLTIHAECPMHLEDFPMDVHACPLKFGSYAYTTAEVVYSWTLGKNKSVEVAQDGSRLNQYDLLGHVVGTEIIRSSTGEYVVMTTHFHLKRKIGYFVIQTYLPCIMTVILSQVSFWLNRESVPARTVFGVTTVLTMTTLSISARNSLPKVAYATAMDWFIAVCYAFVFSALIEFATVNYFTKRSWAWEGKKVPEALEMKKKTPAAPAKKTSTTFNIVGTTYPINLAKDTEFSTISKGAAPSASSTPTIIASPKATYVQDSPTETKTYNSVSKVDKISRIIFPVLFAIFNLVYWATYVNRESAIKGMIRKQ
The test can be described thus: Displacement of [3H]flunitrazepam from human recombinant GABAA alpha-3-beta-3-gamma-2 receptor expressed in HEK cells by liquid scintillation counting. (In a radioligand displacement assay an active substance lowers the binding of a labelled ligand.)

The target of test [2] is T2, GABA-A receptor; alpha-1/beta-3/gamma-2 (Homo sapiens, UniProt P14867+P18507+P28472).
T2 sequence (P14867 whole entry): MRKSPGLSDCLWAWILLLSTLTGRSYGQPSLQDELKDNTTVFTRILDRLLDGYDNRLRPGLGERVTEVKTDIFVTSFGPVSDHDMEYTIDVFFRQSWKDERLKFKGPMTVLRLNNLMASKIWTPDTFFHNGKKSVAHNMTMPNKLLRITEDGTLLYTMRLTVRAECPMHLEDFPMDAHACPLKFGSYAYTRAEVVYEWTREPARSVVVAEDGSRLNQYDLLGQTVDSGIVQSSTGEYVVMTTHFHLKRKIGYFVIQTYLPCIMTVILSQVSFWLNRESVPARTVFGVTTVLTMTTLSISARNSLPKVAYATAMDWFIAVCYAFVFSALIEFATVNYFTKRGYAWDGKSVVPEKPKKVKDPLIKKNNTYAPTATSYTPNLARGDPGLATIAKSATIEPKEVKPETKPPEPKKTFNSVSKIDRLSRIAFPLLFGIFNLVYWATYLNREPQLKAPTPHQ
T2 sequence (P18507 whole entry): T1 sequence (P18507 whole entry)
T2 sequence (P28472 whole entry): T1 sequence (P28472 whole entry)
Briefly: Displacement of [3H]flunitrazepam from human recombinant GABAA alpha-1-beta-3-gamma-2 receptor expressed in HEK cells by liquid scintillation counting.

Test [3] has as its target T3, GABA-A receptor; alpha-5/beta-3/gamma-2 (Homo sapiens, UniProt P18507+P28472+P31644).
T3 sequence (P18507 whole entry): T1 sequence (P18507 whole entry)
T3 sequence (P28472 whole entry): T1 sequence (P28472 whole entry)
T3 sequence (P31644 whole entry): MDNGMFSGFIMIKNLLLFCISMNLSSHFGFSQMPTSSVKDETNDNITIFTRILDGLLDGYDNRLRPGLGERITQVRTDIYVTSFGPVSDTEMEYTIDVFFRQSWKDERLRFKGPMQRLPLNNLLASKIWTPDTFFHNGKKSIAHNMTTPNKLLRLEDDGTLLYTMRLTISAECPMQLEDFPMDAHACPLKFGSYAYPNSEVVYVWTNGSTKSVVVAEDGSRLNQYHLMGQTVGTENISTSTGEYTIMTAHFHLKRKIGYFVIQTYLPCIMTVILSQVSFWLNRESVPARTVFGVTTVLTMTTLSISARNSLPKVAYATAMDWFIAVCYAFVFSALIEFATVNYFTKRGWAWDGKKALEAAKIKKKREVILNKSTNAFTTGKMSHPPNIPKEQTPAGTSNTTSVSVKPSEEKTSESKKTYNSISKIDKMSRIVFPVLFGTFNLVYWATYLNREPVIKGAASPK
Briefly: Displacement of [3H]flunitrazepam from human recombinant GABAA alpha-5-beta-3-gamma-2 receptor expressed in HEK cells by liquid scintillation counting.

In test [4] the target is T4, GABA-A receptor; alpha-2/beta-3/gamma-2 (Homo sapiens, UniProt P18507+P28472+P47869).
T4 sequence (P18507 whole entry): T1 sequence (P18507 whole entry)
T4 sequence (P28472 whole entry): T1 sequence (P28472 whole entry)
T4 sequence (P47869 whole entry): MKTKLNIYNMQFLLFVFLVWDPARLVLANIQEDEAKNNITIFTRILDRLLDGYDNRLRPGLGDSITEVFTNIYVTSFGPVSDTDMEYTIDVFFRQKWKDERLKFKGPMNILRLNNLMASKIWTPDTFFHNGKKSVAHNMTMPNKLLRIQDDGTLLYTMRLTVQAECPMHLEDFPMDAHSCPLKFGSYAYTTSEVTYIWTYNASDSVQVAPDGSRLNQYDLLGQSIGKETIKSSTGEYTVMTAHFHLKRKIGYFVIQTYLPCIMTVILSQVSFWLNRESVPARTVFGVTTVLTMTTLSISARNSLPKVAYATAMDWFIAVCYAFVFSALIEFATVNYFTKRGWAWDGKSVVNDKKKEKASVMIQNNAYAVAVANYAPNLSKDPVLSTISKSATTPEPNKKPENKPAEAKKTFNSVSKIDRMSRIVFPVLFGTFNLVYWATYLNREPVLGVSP
The test can be described thus: Displacement of [3H]flunitrazepam from human recombinant GABAA alpha-2-beta-3-gamma-2 receptor expressed in HEK cells by liquid scintillation counting.

Test [5] concerns the target GABA-A receptor; alpha-6/beta-3/gamma-2 (Homo sapiens, UniProt P18507+P28472+Q16445). Briefly: Displacement of [3H]flunitrazepam from human recombinant GABAA alpha-6-beta-3-gamma-2 receptor expressed in HEK cells by liquid scintillation counting.
The target in test [6] is GABA A receptor alpha-4/beta-3/gamma-2 (Homo sapiens, UniProt P18507+P28472+P48169). The test can be described thus: Displacement of [3H]flunitrazepam from human recombinant GABAA alpha-4-beta-3-gamma-2 receptor expressed in HEK cells by liquid scintillation counting. The following applies: hek293.
Chain of GABA A receptor alpha-4/beta-3/gamma-2 (P48169 whole entry, one chain of several): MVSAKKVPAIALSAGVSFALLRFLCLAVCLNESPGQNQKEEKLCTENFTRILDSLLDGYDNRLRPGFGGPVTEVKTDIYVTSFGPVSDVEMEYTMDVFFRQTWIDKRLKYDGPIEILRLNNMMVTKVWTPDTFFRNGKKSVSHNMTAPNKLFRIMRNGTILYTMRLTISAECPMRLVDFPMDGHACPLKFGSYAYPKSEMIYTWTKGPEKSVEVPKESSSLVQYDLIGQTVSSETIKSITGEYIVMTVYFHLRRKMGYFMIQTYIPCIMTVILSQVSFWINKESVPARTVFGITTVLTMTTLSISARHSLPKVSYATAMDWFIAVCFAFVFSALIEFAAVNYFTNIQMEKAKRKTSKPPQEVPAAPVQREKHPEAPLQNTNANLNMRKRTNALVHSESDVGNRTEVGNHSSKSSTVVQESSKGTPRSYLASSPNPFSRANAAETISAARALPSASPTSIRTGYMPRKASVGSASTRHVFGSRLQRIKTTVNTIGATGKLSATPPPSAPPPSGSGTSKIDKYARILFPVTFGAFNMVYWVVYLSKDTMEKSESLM

Chain of GABA-A receptor; alpha-6/beta-3/gamma-2 (Q16445 whole entry, one chain of several): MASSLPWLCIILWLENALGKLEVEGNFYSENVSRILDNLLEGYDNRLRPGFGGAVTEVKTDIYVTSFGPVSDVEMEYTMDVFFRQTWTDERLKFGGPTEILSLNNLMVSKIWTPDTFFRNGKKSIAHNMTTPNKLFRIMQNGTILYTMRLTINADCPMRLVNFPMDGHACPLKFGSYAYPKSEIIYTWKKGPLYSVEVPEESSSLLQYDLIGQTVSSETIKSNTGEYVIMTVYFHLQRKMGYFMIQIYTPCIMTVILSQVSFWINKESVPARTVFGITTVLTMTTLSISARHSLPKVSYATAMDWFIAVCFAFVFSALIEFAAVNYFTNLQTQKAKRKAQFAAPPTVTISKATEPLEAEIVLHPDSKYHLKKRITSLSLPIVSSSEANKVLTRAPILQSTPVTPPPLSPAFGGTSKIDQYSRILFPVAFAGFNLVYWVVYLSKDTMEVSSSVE

Regarding `O=C(Oc1cc(F)c(F)cc1F)c1cc2c(cn1)[nH]c1ccccc12`, the Ki in test [1] came out at 44.8 nM; in test [2], 22 nM; in test [3] it was 422 nM; in test [4], 177 nM.
Consider `O=C(OCC(Cl)(Cl)Cl)c1cc2c(cn1)[nH]c1ccccc12`, for which the inhibition constant Ki in test [1] worked out at 43 nM; in test [2], 10 nM; in test [3], 189 nM; in test [4], 33 nM.
The corresponding values for `O=C(OCC(F)(F)F)c1cc2c(cn1)[nH]c1ccc(-c3ccccc3)cc12` are 125 nM, 25 nM, 299 nM and 137 nM.
On the same counts, the results for `CC(C)(C)OC(=O)c1cc2c(cn1)[nH]c1ccc(C(C)(C)C)cc12` are 24.5 nM, 2.78 nM, 7.49 nM and 8.93 nM.
The corresponding values for `CC(C)(C)OC(=O)c1cc2c(cn1)[nH]c1ccc(C#C[Si](C)(C)C)cc12` are 36 nM, 6.8 nM, 108 nM and 30 nM.
On to `C#Cc1ccc2[nH]c3cnc(C(=O)OC(C)(C)C)cc3c2c1`, for which the figures for the inhibition constant (Ki) in test [5] and in test [2] were 1980 nM and 0.972 nM, respectively.
Consider `C#Cc1ccc2[nH]c3cnc(C(=O)OCC(F)(F)F)cc3c2c1`, for which the inhibition constant (Ki) in test [1] turned out to be 42.7 nM; in test [2], 4.5 nM; in test [3], 124 nM; in test [4], 44.6 nM.
In the case of `O=C(OC(C(F)(F)F)C(F)(F)F)c1cc2c(cn1)[nH]c1ccccc12`, the Ki in test [1] amounted to 32 nM; in test [2], 3.99 nM; in test [3], 461 nM; in test [4], 8 nM.
On the same counts, the results for `CCOC(=O)c1cc2c(cn1)[nH]c1ccc(C#C[Si](C)(C)C)cc12` are 5.58 nM, 4.4 nM, 47 nM and 4.5 nM.
Take `CC(C)(C)OC(=O)c1cc2c(cn1)[nH]c1ccc(-c3ccco3)cc12`: the Ki in test [1] is 27.5 nM; in test [2], 2.4 nM; in test [3], 163 nM; in test [6], “Not Active”; in test [4], 13 nM.
As to `CC(C)(C)OC(=O)c1cc2c(cn1)[nH]c1ccc(F)cc12`, the Ki in test [1] was 14.7 nM; in test [2] it was 1.62 nM; in test [3], 4.61 nM; in test [4] it was 4.54 nM.
On to `CC(C)(C)OC(=O)c1cc2c(cn1)[nH]c1ccc(-c3ccccc3)cc12`, for which the inhibitory constant (Ki) is 44.3 nM in test [1]; 3.63 nM in test [2]; 76.5 nM in test [3]; “Not Active” in test [6]; 2.02 nM in test [4].
On the same counts, the results for `CC(C)(C)OC(=O)c1cc2c(cn1)[nH]c1ccc(-c3cccs3)cc12` are 314 nM, 37 nM, 2860 nM, “Not Active” and 166 nM.
Turning to `CCC(C)OC(=O)c1cc2c(cn1)[nH]c1ccccc12` (single isomer, unassigned), in test [6], the inhibitory constant (Ki) result is “Not Active”.
Turning to `CCCCOc1cc2c(cn1)[nH]c1ccccc12`, the Ki in test [5] amounted to 1000 nM.
Regarding `CC/C=C/C=C/Oc1cc2c(cn1)[nH]c1ccccc12`, the inhibitory constant (Ki) in test [1] turned out to be 859 nM; in test [2], 245 nM; in test [4] it was 818 nM.
In the case of `CC(OC(=O)c1cc2c(cn1)[nH]c1ccccc12)c1ccccc1` (centres undefined), in test [2], the Ki was determined as 33.5 nM.
With `CC(C)(C)OC(=O)c1cc2c(cn1)[nH]c1ccc(C#CC#Cc3ccc4[nH]c5cnc(C(=O)OC(C)(C)C)cc5c4c3)cc12`, the Ki worked out at 3940 nM in test [1], 120 nM in test [2] and 1060 nM in test [4].
Turning to `C#Cc1ccc2c(c1)c1cc(C(=O)OC(C)(C)C)ncc1n2C(=O)OC(C)(C)C`, the Ki in test [2] came to 450 nM.
With `O=C(OC(C(F)(F)F)C(F)(F)F)c1cc2c(cn1)[nH]c1ccc(I)cc12`, the Ki in test [1] was 131 nM; in test [2], 78 nM; in test [3], 681 nM; in test [4], 301 nM.
The corresponding values for `O=C(OCC(F)(F)F)c1cc2c(cn1)[nH]c1ccc(I)cc12` are 47 nM, 12 nM, 122 nM and 39 nM.
With `CC(C)(C)OC(=O)c1cc2c3cc(I)ccc3n(C(=O)OC(C)(C)C)c2cn1`, the inhibition constant (Ki) in test [3] worked out at 1850 nM.
Regarding `O=C(OCC(F)(F)F)c1cc2c(cn1)[nH]c1ccc(-c3ccco3)cc12`, the Ki in test [1] worked out at 117 nM; in test [2], 26 nM; in test [3] it was 127 nM; in test [4] it was 143 nM.
The corresponding values for `CCOC(=O)c1cc2c(cn1)[nH]c1ccc(I)cc12` are 34 nM, 4.8 nM, 286 nM and 31 nM.
The corresponding values for `O=C(OCC(F)(F)F)c1cc2c(cn1)[nH]c1ccc(-c3cccs3)cc12` are 72 nM, 9.2 nM, 449 nM and 13 nM.
